Where “and” joins values, the source holds several entries; their conditions need not be identical. Equal values may be shown once.
Assay: xn = mol fraction of the nth substance listed

CCOC=O + CCC(C)O
viscosity [mPa·s], 100 kPa
Conditions | x1 = 0.0818 | x1 = 0.1617 | x1 = 0.2415 | x1 = 0.3497 | x1 = 0.4398 | x1 = 0.5611 | x1 = 0.65 | x1 = 0.7399 | x1 = 0.85 | x1 = 0.9396
293.15 K | 2.41 | 1.74 | 1.35 | 1.04 | 0.86 | 0.69 | 0.59 | 0.53 | 0.48 | 0.44
298.15 K | 2.03 | 1.51 | 1.2 | 0.94 | 0.78 | 0.62 | 0.55 | 0.5 | 0.45 | 0.42
303.15 K | 1.74 | 1.32 | 1.07 | 0.84 | 0.71 | 0.58 | 0.51 | 0.47 | 0.43 | 0.4
308.15 K | 1.5 | 1.17 | 0.96 | 0.77 | 0.66 | 0.55 | 0.49 | 0.45 | 0.41 | 0.38
313.15 K | 1.3 | 1.02 | 0.85 | 0.71 | 0.61 | 0.51 | 0.46 | 0.42 | 0.39 | 0.36
318.15 K | 1.13 | 0.9 | 0.77 | 0.65 | 0.57 | 0.48 | 0.43 | 0.39 | 0.36 | 0.34
323.15 K | 1 | 0.82 | 0.72 | 0.61 | 0.55 | 0.47 | 0.42 | 0.38 | 0.35 | 0.32

CCNc1ccccc1 + CC(=O)c1ccccc1
303.15 K, 100 kPa
Conditions | viscosity [mPa·s]
x1 = 0.0651 | 1.524
x1 = 0.1424 | 1.538
x1 = 0.2225 | 1.554
x1 = 0.2977 | 1.568
x1 = 0.3611 | 1.581
x1 = 0.4487 | 1.599
x1 = 0.5162 | 1.614
x1 = 0.5869 | 1.631
x1 = 0.6407 | 1.644
x1 = 0.7083 | 1.662
x1 = 0.7798 | 1.681
x1 = 0.8256 | 1.694
x1 = 0.9025 | 1.715

COCC(C)OCC(C)OC (configuration not stated) + CCCO
298.15 K, 101 kPa
Conditions | viscosity [mPa·s]
x1 = 0.0008 | 1.955
x1 = 0.0409 | 1.775

ClCCl + CO
303.15 K, 101.3 kPa
Conditions | viscosity [mPa·s]
x1 = 0.0146 | 0.5071
x2 = 0.0752 | 0.3905
x2 = 0.1326 | 0.3907
x2 = 0.1509 | 0.3917
x2 = 0.2315 | 0.3988
x2 = 0.3029 | 0.4078
x2 = 0.374 | 0.42
x2 = 0.407 | 0.4262
x2 = 0.5161 | 0.4475
x2 = 0.6525 | 0.4738
x2 = 0.7656 | 0.4932
x2 = 0.8581 | 0.5043
x2 = 0.9182 | 0.5081
x2 = 0.9595 | 0.5087

CC(=O)O + Cc1ccc(C)cc1
viscosity, 101 kPa
Conditions | x2 = 0.0592 | x2 = 0.124 | x2 = 0.1952 | x2 = 0.2738 | x2 = 0.3615 | x2 = 0.4596 | x2 = 0.569 | x2 = 0.6934 | x2 = 0.8354
303.15 K | 0.8817 mPa·s and 0.882 mPa·s | 0.7951 mPa·s and 0.795 mPa·s | 0.7314 mPa·s and 0.731 mPa·s | 0.6755 mPa·s and 0.676 mPa·s | 0.6446 mPa·s and 0.645 mPa·s | 0.6109 mPa·s and 0.611 mPa·s | 0.5923 mPa·s and 0.592 mPa·s | 0.58 mPa·s and 0.58 mPa·s | 0.571 mPa·s and 0.571 mPa·s
308.15 K | 0.8236 mPa·s | 0.7455 mPa·s | 0.685 mPa·s | 0.6373 mPa·s | 0.6095 mPa·s | 0.5737 mPa·s | 0.5606 mPa·s | 0.5476 mPa·s | 0.5393 mPa·s
313.15 K | 0.7876 mPa·s | 0.7172 mPa·s | 0.6617 mPa·s | 0.6171 mPa·s | 0.5816 mPa·s | 0.5522 mPa·s | – | 0.5233 mPa·s | –
318.15 K | 0.7347 mPa·s | 0.6716 mPa·s | 0.6249 mPa·s | 0.5798 mPa·s | 0.5483 mPa·s | 0.5222 mPa·s | 0.5018 mPa·s | 0.4927 mPa·s | 0.4862 mPa·s
323.15 K | 0.6874 mPa·s and 0.687 mPa·s | 0.6339 mPa·s and 0.634 mPa·s | 0.5878 mPa·s and 0.588 mPa·s | 0.5468 mPa·s and 0.547 mPa·s | 0.5158 mPa·s and 0.516 mPa·s | 0.4913 mPa·s and 0.491 mPa·s | 0.4775 mPa·s and 0.478 mPa·s | 0.4674 mPa·s and 0.467 mPa·s | 0.4608 mPa·s and 0.461 mPa·s

ClCCl + Cc1ccc(C)cc1
101 kPa
Conditions | viscosity [mPa·s]
293.15 K, x1 = 0.2949 | 0.59
293.15 K, x1 = 0.4409 | 0.561
293.15 K, x1 = 0.5522 | 0.535
293.15 K, x1 = 0.609 | 0.522
293.15 K, x1 = 0.6936 | 0.504
293.15 K, x1 = 0.7459 | 0.492
293.15 K, x1 = 0.8125 | 0.476
293.15 K, x1 = 0.8558 | 0.468
298.15 K, x1 = 0.2347 | 0.568
298.15 K, x1 = 0.3846 | 0.541
298.15 K, x1 = 0.4518 | 0.529
298.15 K, x1 = 0.5662 | 0.504
298.15 K, x1 = 0.6375 | 0.488
298.15 K, x1 = 0.6972 | 0.476
298.15 K, x1 = 0.7342 | 0.467
298.15 K, x1 = 0.7892 | 0.457
298.15 K, x1 = 0.8376 | 0.451
303.15 K, x1 = 0.2286 | 0.539
303.15 K, x1 = 0.3627 | 0.515
303.15 K, x1 = 0.4362 | 0.502
303.15 K, x1 = 0.5371 | 0.483
303.15 K, x1 = 0.624 | 0.463
303.15 K, x1 = 0.6948 | 0.448
303.15 K, x1 = 0.7643 | 0.433
303.15 K, x1 = 0.818 | 0.427

ClCCl + CC(C)=O
viscosity [mPa·s], 101 kPa
Conditions | x2 = 0.0866 | x2 = 0.186 | x2 = 0.3088 | x2 = 0.3898 | x2 = 0.4934 | x2 = 0.5941 | x2 = 0.6959 | x2 = 0.8096 | x2 = 0.899
293.15 K | 0.439 | 0.436 | 0.423 | 0.412 | 0.4 | 0.388 | 0.374 | 0.358 | 0.339
298.15 K | 0.422 | 0.417 | 0.405 | 0.396 | 0.383 | 0.37 | 0.357 | 0.343 | 0.327

ClCCl + Cc1cccc(C)c1
101 kPa
Conditions | viscosity [mPa·s]
293.15 K, x1 = 0.2258 | 0.583
293.15 K, x1 = 0.4249 | 0.553
293.15 K, x1 = 0.4896 | 0.541
293.15 K, x1 = 0.5542 | 0.528
293.15 K, x1 = 0.6288 | 0.512
293.15 K, x1 = 0.769 | 0.482
293.15 K, x1 = 0.8151 | 0.472
298.15 K, x1 = 0.2398 | 0.55
298.15 K, x1 = 0.4075 | 0.527
298.15 K, x1 = 0.4997 | 0.511
298.15 K, x1 = 0.5622 | 0.501
298.15 K, x1 = 0.6288 | 0.485
298.15 K, x1 = 0.6891 | 0.474
298.15 K, x1 = 0.7634 | 0.461
298.15 K, x1 = 0.8183 | 0.451
298.15 K, x1 = 0.8586 | 0.446
303.15 K, x1 = 0.3947 | 0.501
303.15 K, x1 = 0.4925 | 0.483
303.15 K, x1 = 0.5836 | 0.466
303.15 K, x1 = 0.6551 | 0.453
303.15 K, x1 = 0.7164 | 0.441
303.15 K, x1 = 0.7934 | 0.428
303.15 K, x1 = 0.8418 | 0.421
303.15 K, x1 = 0.8669 | 0.417

COCC(C)OCC(C)OC (configuration not stated) + CCCCCCCO
Conditions | viscosity [mPa·s]
298.15 K, 101 kPa, x1 = 0.4532 | 1.895

C[Si]1(C)O[Si](C)(C)O[Si](C)(C)O[Si](C)(C)O1 + c1ccccc1
101 kPa
Conditions | viscosity [mPa·s]
298.15 K, x1 = 0.0341 | 0.6224
298.15 K, x1 = 0.0699 | 0.6486
298.15 K, x1 = 0.1407 | 0.7099
298.15 K, x1 = 0.2235 | 0.7944
298.15 K, x1 = 0.2938 | 0.875
298.15 K, x1 = 0.3751 | 0.9814
298.15 K, x1 = 0.4689 | 1.113
298.15 K, x1 = 0.6211 | 1.363
298.15 K, x1 = 0.6777 | 1.466
298.15 K, x1 = 0.751 | 1.608
298.15 K, x1 = 0.8434 | 1.804
298.15 K, x1 = 0.8753 | 1.88
298.15 K, x1 = 0.9028 | 1.939
298.15 K, x1 = 0.9291 | 2.01
308.15 K, x1 = 0.0886 | 0.5768
308.15 K, x1 = 0.3517 | 0.818
308.15 K, x1 = 0.602 | 1.127
308.15 K, x1 = 0.7741 | 1.39
308.15 K, x1 = 0.8544 | 1.527
308.15 K, x1 = 0.9373 | 1.682
318.15 K, x1 = 0.0888 | 0.507
318.15 K, x1 = 0.3526 | 0.714
318.15 K, x1 = 0.6036 | 0.971
318.15 K, x1 = 0.7763 | 1.186
318.15 K, x1 = 0.8562 | 1.298
318.15 K, x1 = 0.9134 | 1.393

ClCCl + ClC(Cl)Cl
Conditions | viscosity [mPa·s]
303.15 K, 101.3 kPa, x1 = 0.4966 | 0.4521

Reference: the CheMixHub viscosity set
